For series [1], the system named is serum IgG. Briefly: Serum IgG levels in ASCLEPIOS I/II (Pool C2).
Protocol: In the present application serum Ig levels can preferably be determined by immunoturbidimetry. Preferably a Roche cobas® Analyzer was used, especially module c of the cobas® analyser. In a preferred embodiment Ig levels can be determined by using a cobas® c 311 analyzer. It is further preferred that IgG measurements are carried out as described in the cobas® leaflet “IGG-2 Tina-quant IgG Gen. 2”, preferably version 11.0 dated 2016-02 and IgM measurements as described in the leaflet “IGM-2 Tina-quant IgM Gen. 2”, preferably version 13.0 dated 2018-11.
(§1) Serum samples were preferably kept at 2-8° C. before measurement.
Patients were randomised (1:1) to receive either ofatumumab 20 mg sc injections every 4 weeks (after an initial loading regimen of 20 mg sc doses on Days 1, 7 and 14) or teriflunomide 14 mg orally once daily, for up to 30 months.
(§2) Serum IgG/IgM levels were monitored at baseline, Week (W) 4, W12 and every 12 weeks, see FIG. 1.
The subject of series [2] is CD19+ B-cells. Briefly: CD19+ B-cell depletion in ASCLEPIOS
Type of series: in vivo, human.
Protocol: ASCLEPIOS I and II are double-blind, double-dummy, active comparator-controlled, parallel-group, innovative, adaptive design, multicentre trials. Patients were randomised (1:1) to receive either ofatumumab 20 mg sc injections every 4 weeks (after an initial loading regimen of 20 mg sc doses on Days 1, 7 and 14) or teriflunomide 14 mg orally once daily, for up to 30 months. […] Patients aged 18-55 years with an Expanded Disability Status Scale (EDSS) score (according to Kurtzke, Neurology. 1983, Nov; 33(11): 1444-52) of 0-5.5 at screening who experienced ≥1 relapse in the past year or ≥2 relapses in the past 2 years or a positive gadolinium-enhancing (Gd+) MRI scan during the year before randomisation were included.

Series [3] deals with serum IgM. Briefly: Serum IgM levels in ASCLEPIOS I/II (Pool C2). Type of series: in vivo, human. The conditions noted are these: any time post-baseline, FIG. 9.
Protocol: In the present application serum Ig levels can preferably be determined by immunoturbidimetry. Preferably a Roche cobas® Analyzer was used, especially module c of the cobas® analyser.
as §1
ASCLEPIOS I and II are double-blind, double-dummy, active comparator-controlled, parallel-group, innovative, adaptive design, multicentre trials. Patients were randomised (1:1) to receive either ofatumumab 20 mg sc injections every 4 weeks (after an initial loading regimen of 20 mg sc doses on Days 1, 7 and 14) or teriflunomide 14 mg orally once daily, for up to 30 months.
Series [4] relates to multiple sclerosis patients. Briefly: Infections in relation to IgM/IgG levels <LLN vs >=LLN in ofatumumab MS studies.
Description: as §2
Series [5] relates to multiple sclerosis patients. Conditions: in vivo; cited from earlier work.
Series [6] concerns IgG levels. Briefly: Metanalysis of Example 1 versus Derfuss et al. (pooled OPERA), IgG levels. It is filed as in vivo, human. The conditions noted are these: in vivo. The text has this:
In a metanalysis, the results of Example 1 and the results obtained by Derfuss et al. were compared.

Series [7] deals with MS patients. Conditions: cited from earlier work.
Where [8] appears, read: anytime during post baseline visit.
[9] abbreviates: Ofatumumab N=134, Teriflunomide N=214.
Where [10] appears, read: after the last infusion, 51 patients from MS clinical studies.

Turning to `C/C(O)=C(\C#N)C(=O)Nc1ccc(C(F)(F)F)cc1` [teriflunomide], the “change in mean serum IgG value from baseline” value in series [1] (Week 96) is -0.421 g/L. Further, the “decrease in mean IgG value from baseline” value in series [1] (Week 96) turned out to be 4.1%. Moreover, the “patients with IgG levels on or above the LLN” value in series [1] (any time post-baseline, FIG. 9) is reported as greater than 77%. Besides, in series [1] (setting [8]), the “patients with IgG below LLN, n/N” value is on record as 214/934. Also, in series [1] (setting [8]), the “proportion of patients with IgG below LLN” value is 22.9%. For the same molecule, the “patients with CD19+ B-cells below LLN” value in series [2] (Week 1) is reported as “(2.0) %”; in series [2] (Week 2) it was “(1.6) %”; in series [2] (Week 4) it was “(3.2) %”; in series [2] (Week 12) it was “(3.0) %”; in series [2] (Week 24), “(2.1) %”; in series [2] (Week 36), “(1.2) %”. The “patients with CD19+ B-cells below LLN” value in series [2] (Week 48) is recorded as “(1.3) %”; in series [2] (Week 60), “(2.1) %”; in series [2] (Week 72) it was “(1.0) %”; in series [2] (Week 84) it was “(2.1) %”; in series [2] (Week 96) it was “(0.8) %”; in series [2] (Week 108) it was “(4.5) %”. Further, the “patients with CD19+ B-cells below LLN, n/M” value (from here on “patients … n/M”) in series [2] (Week 1) was 9/443; in series [2] (Week 2) it was 7/437; in series [2] (Week 4), 14/444; in series [2] (Week 12), 13/439; in series [2] (Week 24), 9/419; in series [2] (Week 36), 5/408. In addition, the “patients … n/M” value in series [2] (Week 48) is on record as 5/394; in series [2] (Week 60), 8/382; in series [2] (Week 72) it was 3/304; in series [2] (Week 84), 4/195; in series [2] (Week 96), 1/121; in series [2] (Week 108) it was 3/67. Also, the “patients … n/M” value in series [2] (Week 120) is reported as 0/16. The “patients with B-cells below LLN” value in series [2] (throughout the study Treatment epoch) is recorded as “up to 4.5%”. Also, in series [3], the “patients with IgM levels on or above the LLN” value was greater than 90%. In series [4] (setting [9]), the “Infections observed after the first drop of IgG<LLN” value was found to be 36.4%. For the same molecule, the “Infections observed after the first drop of IgG<LLN, number of patients” value in series [4] (setting [9]) amounted to 78. Also, the “patients who reported an infection post study drug discontinuation” value in series [4] (among patients who discontinued treatment for Ig decline) is 2 of 7.
On to “ocrelizumab: anti-CD20 monoclonal antibody with a humanized antibody backbone, approved for relapsing and primary progressive MS”, for which, in series [5], the “approximate mean rate of reduction in serum Ig levels” value is reported as 3-4 % per year; the “infection rate, association with IgG, first value” is on record as 6.50 /100PY; the “infection rate, association with IgG, second (vs) value” was 2.11 /100PY; the “infection rate, association with IgM, first value” is on record as 3.66 /100PY. In addition, the “infection rate, association with IgM, second (vs) value” in series [5] is 1.88 /100PY. Also, the “effect on IgG levels on the long term” value in series [6] is “leads to a reduction of IgG levels”. For the same molecule, in series [7] (setting [10]), the “median time for B-cell counts to return to either baseline or LLN” value is listed as 72 weeks and the “range of time for B-cell counts to return to either baseline or LLN” value is on record as 27-175 weeks. For the same molecule, in series [7] (in vivo), the “effect on total immunoglobulins” value is on record as “decrease in total immunoglobulins” and the “malignancies compared to control groups” value is “increased number of malignancies”. Further, the “patients whose B-cell counts rose to either baseline or LLN” value in series [7] (within 2.5 years after the last infusion) is reported as 90%.
